# Measurements from US9856298B2 (priority 2011, dated 2018).
# Square brackets hold non-standard residues; d marks the D form. Primed or numbered codes have the meaning given here. Peptide text beside a SMILES is read from it. * marks the point of attachment. Orn(α-tetramethylguanidino) = CN(C)C(=N[C@@H](CCCN)C(=O)*)N(C)C; Guan″ = guanidino group at the N-terminus, N=C(N)*; Guan = N-guanidino (N-terminal), N=C(N)*; Orn = NCCC[C@H](N)C(=O)O
# Key:
# [1] = system: Escherichia coli strain BL21AI; experiment: Minimum inhibitory concentration in 1% TSB; format: cell-based; settings: E. coli BL21AI, 1% TSB, 20 hours at 37° C.
# Experimental: (§1) To that end, the peptides were dissolved in water and diluted in a two-fold dilution series with 1% aqueous soybean medium (TSB) in sterile 96-well plates (Greiner Bio-One GmbH) from 128 μg/ml in twelve dilution steps to 62.5 ng/ml. Overnight cultures of Escherichia coli strain BL21AI were adjusted with 1% TSB to about […] colony forming units per ml. In each case 50 μl of peptide solution per well were then mixed with in each case 50 μl of the bacteria solution, in order to achieve a starting concentration of 4×10^5 bacteria per well. After incubation for 20 hours at 37° C., the absorption at 595 nm was determined (microplate reader, TECAN Trading AG).
# [2] = system: Escherichia coli strain BL21AI; experiment: Minimum inhibitory concentration in TSB in the presence of 25% mouse serum; format: cell-based; settings: E. coli BL21AI, TSB with 25% mouse serum, 20 hours at 37° C.
# Experimental: as §1
# In addition, the antibacterial activity was also determined in the presence of 25% mouse serum. To that end, the MIC values were determined as described above, but 25 μl of mouse serum were also added to each well before the incubation (25% final concentration).
# [3] = mouse
# Experimental: 30 μl of a 1 mg/ml peptide solution were diluted with 120 μl of water and, after addition of 50 of serum, incubated at 37° C. for 0 hours, 0.5 hour, 1 hour, 2 hours or 4 hours. Alternatively, the peptide derivatives having a starting concentration of 3 mg/ml were diluted with serum to a final concentration of 15 μg/ml. According to the stability of the peptides, the samples were analysed at the times mentioned above or after 0 hours, 4 hours and 6 hours. The serum proteins were precipitated by addition of 50 μl of 15% TCA, and the supernatant was neutralised with 25 μl of 1 mol/l NaOH. The samples were made up to 250 μl with 5% B, 230 μl of the solution were transferred into a HPLC vial, and 220 μl were injected.
# RP-HPLC analysis was carried out with a linear acetonitrile gradient (Biosolve BV, Valkenswaard, Netherlands) in the presence of 0.1% trifluoroacetic acid (TFA, UV grade, Fluka Chemie GmbH, Buchs, Switzerland) as ion-pair reagent. The fractions were co-crystallised with α-cyanohydroxycinnamic acid (Bruker Daltonik GmbH; Bremen, Germany) as matrix (4 mg/ml in 60% acetonitrile in 0.1% aqueous TFA) and analysed with a tandem mass spectrometer (MALDI-TOF/TOF-MS, 4700 Proteomics Analyzer; Applied Biosystems GmbH, Weiterstadt, Germany) in positive-ion reflector mode. The amount of intact peptides and their degradation products or metabolites could thus be identified and quantified at the individual times. 25% aqueous mouse serum, which was analysed in parallel for the same time intervals, was used as control.
Molecule,MIC in TSB [1],MIC in TSB/mouse serum [2],Half-life (t1/2) in serum [3],"uncleaved peptide remaining after the indicated time (instead of half-life) ([3]; serum, 6 h, 15 µg/ml)"
"CC[C@H](C)[C@H](NC(=O)[C@H](Cc1ccc(O)cc1)NC(=O)[C@@H](NC(=O)[C@@H]1CCCN1C(=O)[C@H](CCCNC(=N)N)NC(=O)[C@H](CC(N)=O)NC(=O)[C@H](CC(N)=O)NC(=O)[C@H](CCCN)N=C(N(C)C)N(C)C)C(C)C)C(=O)N1CCC[C@H]1C(=O)N[C@@H](CCCNC(=N)N)C(=O)N1CCC[C@H]1C(=O)N[C@@H](CCCNC(=N)N)C(=O)N1CCC[C@H]1C(=O)N1CCC[C@H]1C(=O)N[C@@H](Cc1c[nH]cn1)C(=O)N1CCC[C@H]1C(=O)N[C@@H](CCCNC(=N)N)C(=O)N[C@@H](CC(C)C)C(N)=O [Api 88, Guan-ONNRPVYIPRPRPPHPRL-NH2, reference compound] ({Orn(α-tetramethylguanidino)}-NNRPVYIPRPRPPHPRL-NH2)",0.44 µM,1.19 µM,–,–
"CC[C@H](C)[C@H](NC(=O)[C@H](Cc1ccc(O)cc1)NC(=O)[C@@H](NC(=O)[C@@H]1CCCN1C(=O)[C@H](CCCNC(=N)N)NC(=O)[C@H](CC(N)=O)NC(=O)[C@H](CC(N)=O)NC(=O)[C@H](CCCN)N=C(N(C)C)N(C)C)C(C)C)C(=O)N1CCC[C@H]1C(=O)N[C@@H](CCCNC(=N)N)C(=O)N1CCC[C@H]1C(=O)N[C@@H](CCCNC(=N)N)C(=O)N1CCC[C@H]1C(=O)N1CCC[C@H]1C(=O)N[C@@H](Cc1c[nH]cn1)C(=O)N1CCC[C@H]1C(=O)N[C@@H](CCCN)C(=O)N[C@@H](CC(C)C)C(N)=O [Api 134, Guan-ONNRPVYIPRPRPPHPOL-NH2, reference compound] ({Orn(α-tetramethylguanidino)}-NNRPVYIPRPRPPHP[Orn]L-NH2)",1.78 µM,7.12 µM,–,–
"CC[C@H](C)[C@H](NC(=O)[C@H](CCCN)NC(=O)[C@H](CCCNC(=N)N)NC(=O)[C@@H]1CCCN1C(=O)[C@@H]1CCCN1C(=O)[C@H](CCCNC(=N)N)NC(=O)[C@@H]1CCCN1C(=O)[C@H](CCCNC(=N)N)NC(=O)[C@@H]1CCCN1C(=O)[C@H](CC(C)C)NC(=O)[C@H](Cc1ccc(O)cc1)NC(=O)[C@@H]1CCCN1C(=O)[C@@H]1CCCN1C(=O)[C@H](CCCCN)NC(=O)[C@H](CC(=O)O)NC(=O)[C@@H](N)C(C)C)C(=O)N[C@@H](Cc1ccc(O)cc1)C(=O)N[C@@H](CC(N)=O)C(=O)N[C@@H](CCCN)C(N)=O [Onc 72, VDKPPYLPRPRPPROIYNO-NH2] (H-VDKPPYLPRPRPPR[Orn]IYN[Orn]-NH2)",1.7 µM,1.7 µM,–,–
Guan-ONO(sPEG^750-GARSG)RPVYIPRPRPPHPRL-OH ({Guan″}-[Orn]N[Orn]RPVYIPRPRPPHPRL-OH; not fully specified (residue 3)) [Api 301 (sPEG^750-GARSG)],2.9 µM,0.27 µM,45 min,–
Guan-OO(sPEG^750-GARSG)NRPVYIPRPRPPHPRL-OH (Guan-[Orn][Orn]NRPVYIPRPRPPHPRL-OH; not fully specified (residue 2)) [Api 300 (sPEG^750-GARSG)],2.9 µM,0.54 µM,35 min,–
Guan-OO(sPEG^750-GRSG)NRPVYIPRPRPPHPRL-OH (Guan-[Orn][Orn]NRPVYIPRPRPPHPRL-OH; not fully specified (residue 2)) [Api 300 (sPEG^750-GRSG)],2.9 µM,0.37 µM,50 min,–
Guan-OO(tPEG^5000-GARSG)NRPVYIPRPRPPHPRL-OH (Guan-[Orn][Orn]NRPVYIPRPRPPHPRL-OH; not fully specified (residue 2)) [Api 300 (tPEG^5000-GARSG)],17.4 µM,0.44 µM,–,69%
"H-GNNRPVYIPQPRPPHPRL-OH [Apidaecin 1b, reference compound]",0.48 µM,1.75 µM,–,–
